Assay results from patent US11980688B2, “Nanoliposome-microbubble conjugate including drug for hair loss treatment encapsulated in nanoliposome and composition for alleviating or treating hair loss containing same” (priority 2018, dated 2024).

Tests used:
C57BL/6J mice = test: Testosterone-induced hair loss mouse model, hair growth; type: in vivo; settings: FIG. 5
Method: The hair on the back of each of 6-week-old mice (C57BL/6J) was epilated using an animal epilator (Philips) and hair removal cream (Veet), after which testosterone was dissolved in a mixed solution of propylene glycol and ethanol (3:7 (v:v)) and applied every day at a concentration of 30 μg/ml, and thus an environment similar to that of human hair loss was made.
In the present experiment, the individual test groups were as follows (testosterone was applied to the skin in all cases). • (1) A control group (non-treated group); • (2) A group treated with testosterone; • (3) A group treated with testosterone and then subjected to skin application with the nanoliposome-microbubble conjugate of Example 1; • (4) A group treated with testosterone and then subjected to oral administration with a commercially available finasteride solution; • (5) A group treated with testosterone and then subjected to skin application with a commercially available finasteride solution; • (6) A group treated with testosterone and then subjected to skin application with the nanoliposome of Comparative Example 1; and • (7) A group subjected to skin application with the nanoliposome-microbubble conjugate of Example 1.
A nanoliposome-microbubble conjugate (HTP) configured such that the nanoliposome and the microbubble were conjugated and dispersed at a ratio of 2:1 was used. 200 μl thereof, having a total finasteride content of 1 μg, was applied on the entire epilated back of the mice using a plastic spatula, and after 3 min, was exposed to ultrasound using a medical sonicator. Here, the nanoliposome-microbubble conjugate was applied five times at an interval of one day. Under the same conditions, the total finasteride content was matched in the group treated with the commercially available finasteride solution in lieu of the solution of Example 1 or Comparative Example 1. […]

DPCs = test: Cell viability, WST-1 assay, testosterone-induced apoptosis; type: cell-based; settings: 200 μM testosterone, every 24 hr for 4 days, DPCs compared to 3T3 fibroblasts, FIG. 4 left
Method: Cell viability was evaluated through WST-1 assay (EZ-cytox Cell Viability Assay Kit). DPCs and 3T3 fibroblasts were cultured at a density of 1×10^4/well in a 96-well plate for 24 hr. Here, the culture medium was replaced with a new medium containing 200 μM testosterone, and after 24 hr, a WST-1 reagent was added thereto. The WST-1 reagent was added in an amount of 10% of the culture broth, and after 1 hr, absorbance was measured at 460 nm and thus cell survival and proliferation were compared with a control group (non-treated group). Cell survival was measured at an interval of 24 hr for 4 days after testosterone treatment.
After treatment with the nanoliposome-microbubble conjugate (HTP) of the present invention before treatment with testosterone in the same manner, the culture medium was replaced with a new medium containing 200 μM testosterone, the subsequent procedures were conducted as above, and the state of cells was observed. A comparative group was treated with the nanoliposome-microbubble conjugate (HTP) alone.

## CC(C)(C)NC(=O)[C@H]1CC[C@H]2[C@@H]3CC[C@H]4NC(=O)C=C[C@]4(C)[C@H]3CC[C@]12C [commercially available finasteride drug, finasteride]
C57BL/6J mice; testosterone 30 μg/ml daily, total finasteride 1 μg, applied five times at one-day interval
  hair growth after testosterone, skin application: hair started growing on the seventh week
C57BL/6J mice; testosterone daily, oral dose 10 times the application dose, five times
  hair growth after testosterone, oral administration: hair started growing on the seventh week

## C[C@]12CC[C@H]3[C@@H](CCC4=CC(=O)CC[C@@]43C)[C@@H]1CC[C@@H]2O [testosterone]
DPCs
  extent of apoptosis over time: greatly increased in DPCs compared to 3T3 cells
C57BL/6J mice; testosterone 30 μg/ml applied every day to epilated back
  hair growth, testosterone alone: grew hardly any hair
